What was measured:
Test in all cases: Histone peptide microarray
Assay type in all cases: binding, human
AIRE (PP) = details: AIRE (PP)
Summary of the method: (§1)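 Histone peptide library (293 synthetic peptides, single/combinatorial PTMs) arrayed and probed with 0.5 μM purified GST-PHD domain; optimized protocol; quadruplicate mean and SD reported.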

BAZ2B = details: BAZ2B
Summary of the method: as §1

BPTF (PB) = details: BPTF (PB)
Summary of the method: as §1

CHD4 (PPCC) = details: CHD4 (PPCC)
Summary of the method: as §1

CHD5 (PCC) = details: CHD5 (PCC)
Summary of the method: as §1

CHD5 (PPCC) = details: CHD5 (PPCC)
Summary of the method: as §1

DIDO1 = tested on: DIDO1
Summary of the method: as §1

DPF2 (PPC2W2) = details: DPF2 (PPC2W2)
Summary of the method: as §1

ING1 = tested on: ING1
Summary of the method: as §1

ING2 = tested on: ING2
Summary of the method: as §1

ING3 = tested on: ING3
Summary of the method: as §1

ING4 = tested on: ING4
Summary of the method: as §1

ING5 = tested on: ING5
Summary of the method: as §1

KDM4C (TTP) = details: KDM4C (TTP)
Summary of the method: as §1

KDM5A (1) = details: KDM5A (1)
Summary of the method: as §1

KDM5A (3) = details: KDM5A (3)
Summary of the method: as §1

KDM5B (1) = details: KDM5B (1)
Summary of the method: as §1

KDM5B (3) = details: KDM5B (3)
Summary of the method: as §1

KDM7A = details: KDM7A
Summary of the method: as §1

MLL5 = tested on: MLL5
Summary of the method: as §1

MORC3 (CW) = details: MORC3 (CW)
Summary of the method: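 A peptide microarray holding 293 synthetic histone peptides with individual or combinatorial modifications was probed with each GST-PHD protein at 0.5 μM. Values represent mean intensity (±SD) from four replicates.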

PHF13 = tested on: PHF13
Summary of the method: as §1

PHF21A = details: PHF21A
Summary of the method: as §1

PHF23 = tested on: PHF23
Summary of the method: as §1

PHF2 = tested on: PHF2
Summary of the method: as §1

PHF8 = tested on: PHF8
Summary of the method: as §1

PHRF1 (RP) = details: PHRF1 (RP)
Summary of the method: as §1

RAG2 = tested on: RAG2
Summary of the method: as §1

SP140L = details: SP140L
Summary of the method: as §1

TAF3 = tested on: TAF3
Summary of the method: as §1

TRIM66 (PB) = details: TRIM66 (PB)
Summary of the method: as §1

[1] = sheet "Array Heatmap", each array performed twice, total n = 4
[2] = GST-tagged, arrays performed twice, n of 4

**Q.** How did the “Array Heatmap value (peptide array signal)” value (AIRE (PP); [1]) turn out when H3.3K27vl (15-34): H3.3 15-34 was run?
**A.** Its value is 0.3881.

**Q.** What about the “Array Heatmap value (peptide array signal)” value (BAZ2B; [1]) of the same substance?
**A.** The value was 0.4362.

**Q.** And the “Array Heatmap value (peptide array signal)” value (BPTF (PB); [1])?
**A.** Its value is 0.3408.

**Q.** And the “Array Heatmap value (peptide array signal)” value (CHD4 (PPCC); [1])?
**A.** The value was 0.5729.

**Q.** And the “Array Heatmap value (peptide array signal)” value (CHD5 (PCC); [1])?
**A.** Its value is 0.7909.

**Q.** And the “Array Heatmap value (peptide array signal)” value (CHD5 (PPCC); [1])?
**A.** Its value is 0.5207.

**Q.** What about the “Array Heatmap value (peptide array signal)” value (DIDO1; DIDO1, sheet "Array Heatmap", each array performed twice, total n = 4) of the same substance?
**A.** Its value is 0.7045.

**Q.** What about the “Array Heatmap value (peptide array signal)” value (DPF2 (PPC2W2); [1]) of the same substance?
**A.** The value was 0.6907.

**Q.** What about the “Array Heatmap value (peptide array signal)” value (ING1; ING1, sheet "Array Heatmap", each array performed twice, total n = 4) of the same substance?
**A.** Its value is 0.5627.

**Q.** And the “Array Heatmap value (peptide array signal)” value (ING2; ING2, sheet "Array Heatmap", each array performed twice, total n = 4)?
**A.** Its value is 0.6055.

**Q.** What about the “Array Heatmap value (peptide array signal)” value (ING3; ING3, sheet "Array Heatmap", each array performed twice, total n = 4) of the same substance?
**A.** The value was 0.4849.

**Q.** What about the “Array Heatmap value (peptide array signal)” value (ING4; ING4, sheet "Array Heatmap", each array performed twice, total n = 4) of the same substance?
**A.** The value was 0.4471.

**Q.** And the “Array Heatmap value (peptide array signal)” value (ING5; ING5, sheet "Array Heatmap", each array performed twice, total n = 4)?
**A.** Its value is 0.3413.

**Q.** And the “Array Heatmap value (peptide array signal)” value (KDM4C (TTP); [1])?
**A.** Its value is 0.4488.

**Q.** What about the “Array Heatmap value (peptide array signal)” value (KDM5A (1); [1]) of the same substance?
**A.** The value was 0.4391.

**Q.** What about the “Array Heatmap value (peptide array signal)” value (KDM5A (3); [1]) of the same substance?
**A.** The value was 0.423.

**Q.** And the “Array Heatmap value (peptide array signal)” value (KDM5B (1); [1])?
**A.** The value was 0.5524.

**Q.** What about the “Array Heatmap value (peptide array signal)” value (KDM5B (3); [1]) of the same substance?
**A.** The value was 0.4603.

**Q.** And the “Array Heatmap value (peptide array signal)” value (KDM7A; [1])?
**A.** Its value is 0.3156.

**Q.** What about the “Array Heatmap value (peptide array signal)” value (MLL5; MLL5, sheet "Array Heatmap", each array performed twice, total n = 4) of the same substance?
**A.** Its value is 0.5405.

**Q.** What about the “Array Heatmap value (peptide array signal)” value (MORC3 (CW); [1]) of the same substance?
**A.** Its value is 0.3607.

**Q.** What about the “Array Heatmap value (peptide array signal)” value (PHF13; PHF13, sheet "Array Heatmap", each array performed twice, total n = 4) of the same substance?
**A.** Its value is 0.5845.

**Q.** What about the “Array Heatmap value (peptide array signal)” value (PHF21A; [1]) of the same substance?
**A.** The value was 0.4671.

**Q.** What about the “Array Heatmap value (peptide array signal)” value (PHF23; PHF23, sheet "Array Heatmap", each array performed twice, total n = 4) of the same substance?
**A.** Its value is 0.5229.

**Q.** And the “Array Heatmap value (peptide array signal)” value (PHF2; PHF2, sheet "Array Heatmap", each array performed twice, total n = 4)?
**A.** The value was 0.5263.

**Q.** And the “Array Heatmap value (peptide array signal)” value (PHF8; PHF8, sheet "Array Heatmap", each array performed twice, total n = 4)?
**A.** Its value is 0.3696.

**Q.** What about the “Array Heatmap value (peptide array signal)” value (PHRF1 (RP); [1]) of the same substance?
**A.** Its value is 0.4435.

**Q.** What about the “Array Heatmap value (peptide array signal)” value (RAG2; RAG2, sheet "Array Heatmap", each array performed twice, total n = 4) of the same substance?
**A.** Its value is 0.2413.

**Q.** And the “Array Heatmap value (peptide array signal)” value (SP140L; [1])?
**A.** The value was 0.3739.

**Q.** And the “Array Heatmap value (peptide array signal)” value (TAF3; TAF3, sheet "Array Heatmap", each array performed twice, total n = 4)?
**A.** Its value is 0.2402.

**Q.** What about the “Array Heatmap value (peptide array signal)” value (TRIM66 (PB); [1]) of the same substance?
**A.** Its value is 0.5686.

**Q.** How did the “Array Heatmap value (peptide array binding signal)” value (AIRE (PP); [2]) turn out when H4K12ac + K20ac: H4 1-23 was run?
**A.** The value was 0.5505.

**Q.** And the “Array Heatmap value (peptide array binding signal)” value (BAZ2B; [2])?
**A.** Its value is 0.5161.

**Q.** What about the “Array Heatmap value (peptide array binding signal)” value (BPTF (PB); [2]) of the same substance?
**A.** Its value is 0.3685.

**Q.** What about the “Array Heatmap value (peptide array binding signal)” value (CHD4 (PPCC); [2]) of the same substance?
**A.** The value was 0.6135.

**Q.** What about the “Array Heatmap value (peptide array binding signal)” value (CHD5 (PCC); [2]) of the same substance?
**A.** The value was 0.8332.

**Q.** And the “Array Heatmap value (peptide array binding signal)” value (CHD5 (PPCC); [2])?
**A.** The value was 0.5873.

**Q.** What about the “Array Heatmap value (peptide array binding signal)” value (DIDO1; DIDO1, GST-tagged, arrays performed twice, n of 4) of the same substance?
**A.** The value was 0.604.

**Q.** And the “Array Heatmap value (peptide array binding signal)” value (DPF2 (PPC2W2); [2])?
**A.** The value was 0.6377.

**Q.** What about the “Array Heatmap value (peptide array binding signal)” value (ING1; ING1, GST-tagged, arrays performed twice, n of 4) of the same substance?
**A.** The value was 0.4954.

**Q.** What about the “Array Heatmap value (peptide array binding signal)” value (ING2; ING2, GST-tagged, arrays performed twice, n of 4) of the same substance?
**A.** Its value is 0.5908.

**Q.** And the “Array Heatmap value (peptide array binding signal)” value (ING3; ING3, GST-tagged, arrays performed twice, n of 4)?
**A.** Its value is 0.496.

**Q.** And the “Array Heatmap value (peptide array binding signal)” value (ING4; ING4, GST-tagged, arrays performed twice, n of 4)?
**A.** Its value is 0.4824.

**Q.** What about the “Array Heatmap value (peptide array binding signal)” value (ING5; ING5, GST-tagged, arrays performed twice, n of 4) of the same substance?
**A.** The value was 0.3842.

**Q.** What about the “Array Heatmap value (peptide array binding signal)” value (KDM4C (TTP); [2]) of the same substance?
**A.** The value was 0.5414.

**Q.** What about the “Array Heatmap value (peptide array binding signal)” value (KDM5A (1); [2]) of the same substance?
**A.** Its value is 0.5024.

**Q.** And the “Array Heatmap value (peptide array binding signal)” value (KDM5A (3); [2])?
**A.** The value was 0.3797.

**Q.** And the “Array Heatmap value (peptide array binding signal)” value (KDM5B (1); [2])?
**A.** Its value is 0.6403.

**Q.** What about the “Array Heatmap value (peptide array binding signal)” value (KDM5B (3); [2]) of the same substance?
**A.** The value was 0.5497.

**Q.** What about the “Array Heatmap value (peptide array binding signal)” value (KDM7A; [2]) of the same substance?
**A.** Its value is 0.4248.

**Q.** And the “Array Heatmap value (peptide array binding signal)” value (MLL5; MLL5, GST-tagged, arrays performed twice, n of 4)?
**A.** Its value is 0.5351.

**Q.** What about the “Array Heatmap value (peptide array binding signal)” value (MORC3 (CW); [2]) of the same substance?
**A.** Its value is 0.3391.

**Q.** And the “Array Heatmap value (peptide array binding signal)” value (PHF13; PHF13, GST-tagged, arrays performed twice, n of 4)?
**A.** Its value is 0.6532.

**Q.** What about the “Array Heatmap value (peptide array binding signal)” value (PHF21A; [2]) of the same substance?
**A.** The value was 0.5207.

**Q.** And the “Array Heatmap value (peptide array binding signal)” value (PHF23; PHF23, GST-tagged, arrays performed twice, n of 4)?
**A.** Its value is 0.5334.

**Q.** What about the “Array Heatmap value (peptide array binding signal)” value (PHF2; PHF2, GST-tagged, arrays performed twice, n of 4) of the same substance?
**A.** Its value is 0.4316.

**Q.** What about the “Array Heatmap value (peptide array binding signal)” value (PHF8; PHF8, GST-tagged, arrays performed twice, n of 4) of the same substance?
**A.** Its value is 0.3219.

**Q.** What about the “Array Heatmap value (peptide array binding signal)” value (PHRF1 (RP); [2]) of the same substance?
**A.** Its value is 0.4.

**Q.** What about the “Array Heatmap value (peptide array binding signal)” value (RAG2; RAG2, GST-tagged, arrays performed twice, n of 4) of the same substance?
**A.** Its value is 0.2498.

**Q.** What about the “Array Heatmap value (peptide array binding signal)” value (SP140L; [2]) of the same substance?
**A.** Its value is 0.3715.

**Q.** What about the “Array Heatmap value (peptide array binding signal)” value (TAF3; TAF3, GST-tagged, arrays performed twice, n of 4) of the same substance?
**A.** Its value is 0.2733.

**Q.** And the “Array Heatmap value (peptide array binding signal)” value (TRIM66 (PB); [2])?
**A.** The value was 0.5961.

Source: paper PMC6979384, “Characterization of the plant homeodomain (PHD) reader family for their histone tail interactions” (Epigenetics & Chromatin, 2020)
